# The supplement of paper PMC11061612
# Columns and labels:
# Assay in all cases: combination Emax (second highest fraction inhibited in the dose matrix, 72 h); higher = more inhibition; extreme values may be limits of the assay
# [1] = system: PA-TU-8902 (Pancreatic Carcinoma)
# Summary of the method: (§1)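 After 24 hours at 37°C and 5% CO2 in 1536-well plates, cells in DMEM/F12 or RPMI plus 10% FBS received two-drug dose matrices for 72 hours. Viability came from CellTiter-Glo 2.0 luminescence and was scaled as inhibition, anchored at 0 by vehicle wells and at 1 by blank wells. Combination Emax is taken as the second-highest inhibition in the matrix, and Bliss excess as the observed combination effect less EA + EB − EA·EB, with EA and EB the single-agent effects.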
# [2] = system: U-118-MG (Low Grade Glioma)
# Summary of the method: as §1
# [3] = system: RCC10RGB (Kidney Carcinoma)
# Summary of the method: as §1
# [4] = system: HLE (Hepatocellular Carcinoma)
# Summary of the method: as §1
# [5] = system: EFM-192A (Breast Carcinoma)
# Summary of the method: as §1
# [6] = system: D-283MED (Other Solid Carcinomas)
# Summary of the method: as §1
# [7] = system: WSU-DLCL2 (B-Cell Non-Hodgkin's Lymphoma)
# Summary of the method: as §1
# [8] = system: SW948 (Colorectal Carcinoma)
# Summary of the method: as §1
# [9] = system: NOMO-1 (Acute Myeloid Leukemia)
# Summary of the method: as §1
# [10] = system: CAL-39 (Other Solid Carcinomas)
# Summary of the method: as §1
# [11] = system: MSTO-211H (Mesothelioma)
# Summary of the method: as §1
# [12] = system: HCT-116 (Colorectal Carcinoma)
# Summary of the method: as §1
# [13] = system: SLVL (B-Cell Non-Hodgkin's Lymphoma)
# Summary of the method: as §1
# [14] = system: 647-V (Bladder Carcinoma)
# Summary of the method: as §1
# [15] = system: H4 (Low Grade Glioma)
# Summary of the method: as §1
# [16] = system: HCC38 (Breast Carcinoma)
# Summary of the method: as §1
# [17] = system: DOK (Oral Cavity Carcinoma)
# Summary of the method: as §1
# [18] = system: SK-MEL-1 (Melanoma)
# Summary of the method: as §1
# [19] = system: EW-22 (Ewing's Sarcoma)
# Summary of the method: as §1
# [20] = system: ETK-1 (Biliary Tract Carcinoma)
# Summary of the method: as §1
Compound,combination Emax [1],combination Emax [2],combination Emax [3],combination Emax [4],combination Emax [5],combination Emax [6],combination Emax [7],combination Emax [8],combination Emax [9],combination Emax [10],combination Emax [11],combination Emax [12],combination Emax [13],combination Emax [14],combination Emax [15],combination Emax [16],combination Emax [17],combination Emax [18],combination Emax [19],combination Emax [20]
"CN(C)CCCOc1ccc(-c2ccc3ncc4c(c3c2)n(C2CCOCC2)c(=O)n4C)cn1 [AZD0156] + O=C(c1cc(Cc2n[nH]c(=O)c3ccccc23)ccc1F)N1CCN(C(=O)C2CC2)CC1 [Olaparib] (first compound max 3 µM, partner max 3 µM)",0.239,0.304,0.229,0.335,0.248,0.557,0.89,0.252,0.321,0.331,0.0713,0.281,0.313,0.257,0.536,0.266,0.361,0.0982,0.872,0.329
"C=CCn1c(=O)c2cnc(Nc3ccc(N4CCN(C)CC4)cc3)nc2n1-c1cccc(C(C)(C)O)n1 [AZD1775] + C1CN(CCC1(C(=O)N[C@@H](CCO)C2=CC=C(C=C2)Cl)N)C3=NC=NC4=C3C=CN4 [Capivasertib] (first compound max 3 µM, partner max 3 µM)",0.527,0.577,0.583,0.858,0.494,0.904,1,0.799,0.964,0.782,0.352,0.667,0.87,0.948,0.942,0.748,0.754,0.336,0.786,0.664
"CN(CCO)CC[C@H](CSc1ccccc1)Nc1ccc(S(=O)(=O)NC(=O)c2ccc(N3CCC([C@@H](O)c4ccccc4-c4ccc(Cl)cc4)CC3)cc2)cc1S(=O)(=O)C(F)(F)F [AZD4320] + C1CN(CCC1(C(=O)N[C@@H](CCO)C2=CC=C(C=C2)Cl)N)C3=NC=NC4=C3C=CN4 [Capivasertib] (first compound max 1 µM, 7x7, partner max 3 µM)",0.156,0.497,0.237,0.274,0.418,0.763,1,0.624,0.51,0.286,0.48,0.146,0.622,0.147,0.404,0.848,0.39,0.419,0.851,0.175
"CN(CCO)CC[C@H](CSc1ccccc1)Nc1ccc(S(=O)(=O)NC(=O)c2ccc(N3CCC([C@@H](O)c4ccccc4-c4ccc(Cl)cc4)CC3)cc2)cc1S(=O)(=O)C(F)(F)F [AZD4320] + C=CCn1c(=O)c2cnc(Nc3ccc(N4CCN(C)CC4)cc3)nc2n1-c1cccc(C(C)(C)O)n1 [AZD1775] (first compound max 1 µM, partner max 1 µM)",0.296,0.376,0.552,0.871,0.302,0.985,1,0.745,0.97,0.345,0.933,0.572,0.966,0.949,1,0.903,0.504,0.584,0.988,0.618
"CN(CCO)CC[C@H](CSc1ccccc1)Nc1ccc(S(=O)(=O)NC(=O)c2ccc(N3CCC([C@@H](O)c4ccccc4-c4ccc(Cl)cc4)CC3)cc2)cc1S(=O)(=O)C(F)(F)F [AZD4320] + CCN(CCO)CCCOc1ccc2c(Nc3cc(CC(=O)Nc4cccc(F)c4)[nH]n3)ncnc2c1 [AZD2811] (first compound max 1 µM, 7x7, partner max 1 µM)",0.189,0.487,0.133,0.721,0.172,0.973,0.907,0.545,0.76,0.397,0.837,0.748,0.94,0.708,0.543,0.802,0.747,0.453,1,0.26
"CN(CCO)CC[C@H](CSc1ccccc1)Nc1ccc(S(=O)(=O)NC(=O)c2ccc(N3CCC([C@@H](O)c4ccccc4-c4ccc(Cl)cc4)CC3)cc2)cc1S(=O)(=O)C(F)(F)F [AZD4320] + CN(C)CCCOc1ccc(-c2ccc3ncc4c(c3c2)n(C2CCOCC2)c(=O)n4C)cn1 [AZD0156] (first compound max 1 µM, 7x7, partner max 1 µM)",0.0883,0.388,0.243,0.399,0.234,0.818,0.581,0.248,0.377,0.181,0.435,0.167,0.461,0.172,0.247,0.812,0.136,0.498,0.897,0.112
"CN(CCO)CC[C@H](CSc1ccccc1)Nc1ccc(S(=O)(=O)NC(=O)c2ccc(N3CCC([C@@H](O)c4ccccc4-c4ccc(Cl)cc4)CC3)cc2)cc1S(=O)(=O)C(F)(F)F [AZD4320] + C[C@@H]1COCCN1C2=NC(=NC(=C2)C3(CC3)[S@](=N)(=O)C)C4=C5C=CNC5=NC=C4 [AZD6738] (first compound max 1 µM, 7x7, partner max 10 µM)",0.341,0.878,0.492,0.871,0.349,0.992,0.989,0.563,0.972,0.619,0.959,0.778,0.94,0.816,0.9,0.933,0.587,0.597,1,0.675
"CN(CCO)CC[C@H](CSc1ccccc1)Nc1ccc(S(=O)(=O)NC(=O)c2ccc(N3CCC([C@@H](O)c4ccccc4-c4ccc(Cl)cc4)CC3)cc2)cc1S(=O)(=O)C(F)(F)F [AZD4320] + C[C@@H](Nc1cc(F)cc(F)c1)c1cc(C(=O)N(C)C)cc2c(=O)cc(N3CCOCC3)oc12 [AZD8186] (first compound max 1 µM, 7x7, partner max 3 µM)",0.387,0.812,0.507,0.48,0.345,0.928,0.978,0.485,0.636,0.41,0.751,0.686,0.955,0.989,0.583,0.884,0.301,0.722,1,0.324
"CN(CCO)CC[C@H](CSc1ccccc1)Nc1ccc(S(=O)(=O)NC(=O)c2ccc(N3CCC([C@@H](O)c4ccccc4-c4ccc(Cl)cc4)CC3)cc2)cc1S(=O)(=O)C(F)(F)F [AZD4320] + Cc1cc2ncnn2cc1Nc1ncc2c(n1)n(C1CCOCC1)c(=O)n2C [AZD7648] (first compound max 1 µM, 7x7, partner max 10 µM)",0.144,0.351,0.265,0.33,0.226,0.923,0.744,0.393,0.475,0.371,0.327,0.229,0.605,0.219,0.204,0.873,0.362,0.606,0.905,0.209
"CN(CCO)CC[C@H](CSc1ccccc1)Nc1ccc(S(=O)(=O)NC(=O)c2ccc(N3CCC([C@@H](O)c4ccccc4-c4ccc(Cl)cc4)CC3)cc2)cc1S(=O)(=O)C(F)(F)F [AZD4320] + Cn1cnc2c(F)c(Nc3ccc(Br)cc3Cl)c(C(=O)NOCCO)cc21 [Selumetinib] (first compound max 1 µM, 7x7, partner max 3 µM)",0.7,0.842,0.576,0.504,0.284,0.918,0.959,0.79,1,0.604,0.531,0.709,0.966,0.971,0.418,0.907,0.562,0.976,1,0.3
"COc1nnc2ccc(N3CCC(c4ccc(OCCN5CCN(C)C(=O)[C@H]5C)cc4)CC3)nn12 [AZD5153] + C=CCn1c(=O)c2cnc(Nc3ccc(N4CCN(C)CC4)cc3)nc2n1-c1cccc(C(C)(C)O)n1 [AZD1775] (first compound max 1 µM, partner max 1 µM)",0.502,0.467,0.686,0.61,0.391,0.988,0.996,0.655,0.983,0.788,0.255,0.788,0.738,0.637,0.884,0.433,0.658,0.568,0.781,0.576
"Cc1c2c(nn1C)CSCc1cc(n(C)n1)CSc1cc(c3ccccc3c1)OCCCc1c(C(=O)O)n(C)c3c-2c(Cl)ccc13 [AZD5991] + C[C@@H](Nc1cc(F)cc(F)c1)c1cc(C(=O)N(C)C)cc2c(=O)cc(N3CCOCC3)oc12 [AZD8186] (first compound max 1 µM, 7x7, partner max 3 µM)",0.173,0.45,0.557,–,0.703,0.342,1,0.345,0.905,0.704,0.313,0.248,0.47,0.802,0.656,0.396,0.459,0.153,0.491,0.306
